# According to publication PMC10764104, “Discovery of Molecular Glue Degraders via Isogenic Morphological Profiling” (ACS Chemical Biology, 2023):
# Target: T1, GSPT2 (Homo sapiens, UniProt Q8IYD1+Q96SW2)
# T1 construct: endogenous in cells; host or cells: RKO WT or RKO CRBN KO
# Experiment: Western blot analysis of GSPT2 degradation in HEK293T cells
# Format: cell-based
# Details: 0 to 10 μM, 16 h
# Description: Figure 3 FL2-14 is a selective GSPT2 molecular glue degrader. (A) Structure of FL2-14 comprising fluorosulfate scaffold FL2 (black) and tail group modification 14 (blue). (B) DMSO-normalized quantitative proteomics after 16 h of treatment with FL2-14 (10 μM) in RKO WT (n = 2). […] (C) Structural alignment of AlphaFold models of GSPT1 (AF-P15170-F1-model_v4 in gray) and GSPT2 (AF-Q8IYD1-F1-model_v4 in blue). (D) Validation of GSPT2 degradation by FL2-14. […] (E) Dose–response of FL2-14 in RKO and HEK293T cells. Cells were treated with the FL2-14 (0 to 10 μM) for 16 h. (F) Degradation of GSPT2^WT or GSPT2^G566N. […]
# spectra were searched against the human proteome (Canonical, reviewed, 20 304 sequences) and appended known contaminants and streptavidin, with a maximum of two allowable miscleavage sites. The search was performed with full tryptic digestion. […] Peptide spectrum matches (PSMs) with precursor isolation interference values of > 70, average TMTpro reporter ion S/N < 10 and SPS Mass Matches < 65 % were excluded from quantification. Both unique and razor peptides were used for TMT quantification. […] Protein ratios are directly calculated from the grouped protein abundances using an ANOVA hypothesis test. Adjusted p‐values are calculated using the Benjamini‐Hochberg method. […]
# T1 sequence (Q8IYD1 whole entry): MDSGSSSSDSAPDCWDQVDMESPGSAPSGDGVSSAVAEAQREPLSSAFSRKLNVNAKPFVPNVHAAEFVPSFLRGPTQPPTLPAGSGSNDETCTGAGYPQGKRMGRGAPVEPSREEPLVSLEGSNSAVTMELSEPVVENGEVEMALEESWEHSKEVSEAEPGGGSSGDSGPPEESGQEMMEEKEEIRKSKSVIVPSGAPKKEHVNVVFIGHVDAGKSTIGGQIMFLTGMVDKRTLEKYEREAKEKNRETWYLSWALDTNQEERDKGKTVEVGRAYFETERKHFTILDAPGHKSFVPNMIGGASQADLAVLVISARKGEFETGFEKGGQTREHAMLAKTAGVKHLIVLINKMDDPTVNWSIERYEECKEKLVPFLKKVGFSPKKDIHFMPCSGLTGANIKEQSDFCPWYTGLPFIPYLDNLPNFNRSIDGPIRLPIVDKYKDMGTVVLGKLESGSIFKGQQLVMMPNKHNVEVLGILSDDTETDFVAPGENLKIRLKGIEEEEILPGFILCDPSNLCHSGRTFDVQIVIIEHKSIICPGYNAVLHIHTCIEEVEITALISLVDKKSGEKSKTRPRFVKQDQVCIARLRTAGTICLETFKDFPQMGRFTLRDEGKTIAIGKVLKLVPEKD
# T1 sequence (Q96SW2 whole entry): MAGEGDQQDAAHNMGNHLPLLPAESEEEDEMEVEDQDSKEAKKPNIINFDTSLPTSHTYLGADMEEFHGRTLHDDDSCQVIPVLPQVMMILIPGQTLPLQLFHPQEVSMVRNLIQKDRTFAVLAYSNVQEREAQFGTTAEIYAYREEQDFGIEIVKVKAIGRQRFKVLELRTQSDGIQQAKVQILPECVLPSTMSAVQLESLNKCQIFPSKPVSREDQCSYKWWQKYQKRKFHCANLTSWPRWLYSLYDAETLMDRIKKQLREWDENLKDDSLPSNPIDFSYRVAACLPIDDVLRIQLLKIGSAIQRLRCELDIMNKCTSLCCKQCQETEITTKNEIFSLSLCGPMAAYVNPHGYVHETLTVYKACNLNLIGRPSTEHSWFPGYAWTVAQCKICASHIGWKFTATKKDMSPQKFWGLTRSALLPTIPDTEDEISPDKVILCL
# T1 sequence (Q16531 2-1140 partner limits assumed): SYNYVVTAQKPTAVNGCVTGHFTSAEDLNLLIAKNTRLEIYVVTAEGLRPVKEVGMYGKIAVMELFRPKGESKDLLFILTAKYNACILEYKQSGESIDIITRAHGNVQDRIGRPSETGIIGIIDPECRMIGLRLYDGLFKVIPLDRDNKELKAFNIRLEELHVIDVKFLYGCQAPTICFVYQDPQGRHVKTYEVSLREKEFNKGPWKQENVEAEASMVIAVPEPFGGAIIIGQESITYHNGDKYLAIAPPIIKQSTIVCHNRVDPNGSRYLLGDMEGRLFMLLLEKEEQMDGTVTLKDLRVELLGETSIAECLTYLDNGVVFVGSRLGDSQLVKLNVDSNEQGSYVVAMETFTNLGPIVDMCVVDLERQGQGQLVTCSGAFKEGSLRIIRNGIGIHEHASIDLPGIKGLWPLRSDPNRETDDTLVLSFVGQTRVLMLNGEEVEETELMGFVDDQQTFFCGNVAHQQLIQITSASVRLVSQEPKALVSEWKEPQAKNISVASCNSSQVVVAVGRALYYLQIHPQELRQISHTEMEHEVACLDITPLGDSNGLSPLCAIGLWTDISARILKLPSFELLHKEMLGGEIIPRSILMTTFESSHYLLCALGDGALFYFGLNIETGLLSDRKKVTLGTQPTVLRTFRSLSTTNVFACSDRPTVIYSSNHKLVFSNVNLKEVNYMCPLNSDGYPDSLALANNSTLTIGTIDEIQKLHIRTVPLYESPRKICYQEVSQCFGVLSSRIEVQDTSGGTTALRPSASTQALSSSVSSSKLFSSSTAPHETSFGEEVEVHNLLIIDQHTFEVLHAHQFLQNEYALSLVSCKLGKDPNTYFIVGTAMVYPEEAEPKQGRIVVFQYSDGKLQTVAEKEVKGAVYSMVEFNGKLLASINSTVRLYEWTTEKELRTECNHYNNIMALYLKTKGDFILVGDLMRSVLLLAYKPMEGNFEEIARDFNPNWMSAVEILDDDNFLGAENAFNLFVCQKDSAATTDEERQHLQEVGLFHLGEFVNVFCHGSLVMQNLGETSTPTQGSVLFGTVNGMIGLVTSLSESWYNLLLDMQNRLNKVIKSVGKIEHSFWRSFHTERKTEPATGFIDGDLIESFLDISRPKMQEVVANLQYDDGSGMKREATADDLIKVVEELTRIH
structure (smiles),measurement,value
CN(Cc1ncc(C2CC2)o1)S(=O)(=O)Oc1ccc(Nc2ccc3c(c2)C(=O)N(C2CCC(=O)NC2=O)C3=O)cc1 (stereo not shown) [FL2-14],GSPT2 degradation in HEK293T cells,could also be observed in HEK293T cells
